Results reported in ChEMBL document CHEMBL1156472, “Structural variation governs substrate specificity for organic anion transporter (OAT) homologs. Potential remote sensing by OAT family members” (J Biol Chem, 2007).

These compounds were tested against T1, Solute carrier family 22 member 20 (Mus musculus, UniProt Q80UJ1) (assay: Inhibition of mouse Oat6-mediated [3H]ES uptake in Xenopus oocytes after 1 hr). Conditions: read-out: Ki.
T1 sequence (Q80UJ1 whole entry): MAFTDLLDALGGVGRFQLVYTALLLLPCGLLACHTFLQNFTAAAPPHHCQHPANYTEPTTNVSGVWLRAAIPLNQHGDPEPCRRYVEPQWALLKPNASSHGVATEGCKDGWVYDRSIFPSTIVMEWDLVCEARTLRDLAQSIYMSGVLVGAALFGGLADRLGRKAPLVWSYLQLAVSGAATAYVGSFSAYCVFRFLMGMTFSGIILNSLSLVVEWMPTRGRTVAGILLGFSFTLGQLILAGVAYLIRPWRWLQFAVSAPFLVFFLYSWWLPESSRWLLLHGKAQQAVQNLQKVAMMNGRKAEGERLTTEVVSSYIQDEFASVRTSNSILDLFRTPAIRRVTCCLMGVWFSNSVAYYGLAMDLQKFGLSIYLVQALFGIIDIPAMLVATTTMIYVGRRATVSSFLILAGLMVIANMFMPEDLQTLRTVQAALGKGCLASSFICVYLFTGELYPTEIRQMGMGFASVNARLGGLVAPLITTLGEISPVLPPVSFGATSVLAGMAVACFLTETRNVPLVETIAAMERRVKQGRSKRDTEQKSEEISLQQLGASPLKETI
Assay type: cell-based, Oocyte

Point of comparison: `O=C(O)C(=O)Cc1ccccc1` [PHENYLPYRUVATE], Ki 29 µM. Against it:
- CCCCCC(=O)O [HEXANOATE] — 3.2-fold lower, 9 µM
- O=C(O)CCCCCCC(=O)O [OCTANEDIOATE] — 39-fold higher, 1130 µM
- CC(C)Cc1ccc(C(C)C(=O)O)cc1 (stereo not drawn) [IBUPROFEN] — 26-fold lower, 1.1 µM
- O=C(O)C(O)Cc1ccc(O)cc1 (stereo not drawn) — 6.3-fold higher, 182 µM
- O=C1OC2(c3ccc(O)cc3Oc3cc(O)ccc32)c2ccccc21 [FLUORESCEIN] — 3.4-fold higher, 99 µM
- CC(=O)NC(CC(=O)O)C(=O)O (stereo not drawn) — 960-fold higher, 27800 µM
- CCCCC(CC)C(=O)O (stereo not drawn) [2-ETHYLHEXANOIC ACID] — 4.4-fold lower, 6.6 µM
- CC(=O)Oc1ccccc1C(=O)O [ASPIRIN] — 3.5-fold higher, 101 µM
- O=C(O)CCCCC(=O)O [ADIPIC ACID] — 54-fold higher, 1580 µM
- CC1(C)S[C@@H]2[C@H](NC(=O)C(C(=O)O)c3ccccc3)C(=O)N2[C@H]1C(=O)O (stereo partly drawn) [CARBENICILLIN DISODIUM] — 46-fold higher, 1330 µM
- CC1(C)S[C@@H]2[C@H](NC(=O)[C@H](C(=O)O)c3ccsc3)C(=O)N2[C@H]1C(=O)O [TICARCILLIN] — 18-fold higher, 533 µM
- CCCCCCC(=O)O [HEPTANOATE] — 3.5-fold lower, 8.2 µM
- CCCC(=O)O [BUTYRIC ACID] — 2.8-fold higher, 82 µM
- O=C(O)C(=O)Cc1ccc(O)cc1 [4-HYDROXYPHENYLPYRUVIC ACID] — 2.3-fold higher, 66 µM
- C[C@]12CC[C@@H]3c4ccc(OS(=O)(=O)O)cc4CC[C@H]3[C@@H]1CCC2=O [ESTRONE SULFURIC ACID] — 2-fold higher, 58 µM
- O=C(O)c1ccccc1-c1c2cc(Br)c(=O)c(Br)c-2oc2c(Br)c(O)c(Br)cc12 — 6.6-fold lower, 4.4 µM
- CC(C)CC(=O)O [3-METHYLBUTANOIC ACID] — within 1.5-fold, 32.3 µM
- CCCN(CCC)S(=O)(=O)c1ccc(C(=O)O)cc1 [PROBENECID] — 3.5-fold lower, 8.4 µM
- O=C(O)/C=C/C(=O)O [FUMARIC ACID] — higher, > 30000 µM
- CN(Cc1cnc2nc(N)nc(N)c2n1)c1ccc(C(=O)NC(CCC(=O)O)C(=O)O)cc1 (single isomer, unassigned) [METHOTREXATE] — 21-fold higher, 597 µM
- O=C(O)c1ccccc1 [BENZOIC ACID] — 2.1-fold lower, 13.8 µM
- C[C@]12CC[C@@H]3c4ccc(OS(=O)(=O)O)cc4CC[C@H]3[C@@H]1CC[C@@H]2OS(=O)(=O)O [ESTRADIOL DISULFATE] — 250-fold higher, 7210 µM
- CC(C)C(O)C(=O)O (stereo not drawn) — 11-fold higher, 315 µM
- O=C(O)c1ccccc1O [SALICYLIC ACID] — 1.5-fold higher, 44 µM
- CC(=O)C(=O)O [PYRUVATE] — 9.3-fold higher, 271 µM
- CC(O)CC(=O)O (stereo not drawn) [3-HYDROXYBUTYRIC ACID, (+/-)-] — 6.6-fold higher, 191 µM
- CCC(=O)O [PROPIONIC ACID] — 9.6-fold higher, 279 µM
- Nc1ccc(C(=O)NCC(=O)O)cc1 [AMINOHIPPURIC ACID] — 15-fold higher, 446 µM
- C[C@@H]1Cc2c(Cl)cc(C(=O)N[C@@H](Cc3ccccc3)C(=O)O)c(O)c2C(=O)O1 [3R14S-OCHRATOXIN A] — 1.7-fold higher, 49 µM
- CC1(C)S[C@@H]2[C@H](NC(=O)Cc3ccccc3)C(=O)N2[C@H]1C(=O)O (single isomer, unassigned) [PENICILLIN G SODIUM] — 16-fold higher, 452 µM
- CCCCC[C@H](O)/C=C/[C@H]1[C@H](O)CC(=O)[C@@H]1C/C=C\CCCC(=O)O [DINOPROSTONE] — 1.6-fold lower, 18 µM
- O=C(O)CNC(=O)c1ccccc1 [HIPPURIC ACID] — 11-fold higher, 312 µM
- O=C(O)CCCC(=O)O [GLUTARATE] — 190-fold higher, 5410 µM

Same assay, conditions: read-out: pKi (converted)

Point of comparison: `CC(C)[C@H](O)C(=O)O`, Ki 316 µM. Against it:
- CCCC[C@@H](CC)C(=O)O — 48-fold lower, 6.61 µM
- O=C(O)[C@@H](O)Cc1ccc(O)cc1 — 1.7-fold lower, 182 µM
- CCCC[C@H](CC)C(=O)O — 48-fold lower, 6.61 µM
- C[C@@H](O)CC(=O)O [(R)-3-HYDROXYBUTANOATE] — 1.7-fold lower, 191 µM
- C[C@H](O)CC(=O)O — 1.7-fold lower, 191 µM
- O=C(O)/C=C/C(=O)O [FUMARIC ACID] — higher, > 31600 µM
- CC(=O)N[C@@H](CC(=O)O)C(=O)O — 87-fold higher, 27500 µM
- CC(C)[C@@H](O)C(=O)O [DEAMINOHYDROXYVALINE] — the same, 316 µM

Each compound was assayed against T1, Solute carrier family 22 member 20 (assay: Activity of mouse Oat6 expressed in Xenopus oocytes assessed as drug uptake). Conditions: oocyte.
Assay type: cell-based

Point of comparison: `C[C@@H]1Cc2c(Cl)cc(C(=O)N[C@@H](Cc3ccccc3)C(=O)O)c(O)c2C(=O)O1` [3R14S-OCHRATOXIN A], Vmax 4.8 pmol/h. Against it:
- CC(C)Cc1ccc(C(C)C(=O)O)cc1 (stereo not drawn) [IBUPROFEN] — lower, 0.28 pmol/h
- C[C@]12CC[C@@H]3c4ccc(OS(=O)(=O)O)cc4CC[C@H]3[C@@H]1CCC2=O [ESTRONE SULFURIC ACID] — higher, 40 pmol/h
- Nc1ccc(C(=O)NCC(=O)O)cc1 [AMINOHIPPURIC ACID] — lower, 4.6 pmol/h
- CCCCC[C@H](O)/C=C/[C@H]1[C@H](O)CC(=O)[C@@H]1C/C=C\CCCC(=O)O [DINOPROSTONE] — lower, 0.9 pmol/h
